Source: patent US11344607B2, “Treatment of disease with relaxin” (BV Biomed Ltd, priority 2015, dated 2022)
Values joined by “and” are separate entries in the source; they are usually repeats but may differ in a detail not shown here. Equal values may be shown once. “Also recorded” adds a separate entry of the source. No end group written: not given here.

Tests used:
EAE mouse model = assay: EAE disease severity, daily clinical score; type: in vivo, mice
Procedure: Female C57BL/6 mice were obtained and housed at Biomedical Research Models (Worcester, Mass.)
(§1) At 7-8 weeks of age, mice were immunized with […] emulsion (Hooke Laboratories #EK-2110 provided pre-formulated). Mice received pertussis toxin (Hooke Laboratory, Cat #EK-2110 provided lyophilized) reconstituted in phosphate buffered saline (PBS) at the time of immunization (day 0; 75 ng) and on day 2 (200 ng). Animals were scored daily for disease severity: 0=normal, 1=tail paralysis, 2=tail paralysis and strong hind limb weakness, 3=complete hind limb paralysis, 4=hind limb and forelimb paralysis, 5=found dead.
(§2) At the onset of EAE (the first day with a score of 1 or greater), subcutaneous alzet pumps (DURECT Corporation, Cupertino, Calif.) were inserted and the animals were randomly assigned to receive either porcine relaxin (SKY BioHealth, Inc., Eden Prairie, Minn., […]) or placebo treatment (1 μ/Hr PBS), either recombinant porcine relaxin (pRLN, n=8) or placebo (PBS, n=8) at a rate of 0.110/hr. Relaxin (SKY BioHealth, Inc., Eden Prairie, Minn/) was administered at a concentration of 0.25 mg/ml for the remainder of the study. This delivered a standard dose of 0.66 μg/day of pRLN, which is equivalent to the identified effective dose of 30 μg/KG body weight/day (Hasse et al, 2014). Statistical analysis was done using the t-test and P values <0.05 were considered to be statistically significant.

CCR2 = assay: RT-PCR of spinal cord, CCR2 expression; type: in vivo, mice
Procedure: as §1
(§3) At the onset of EAE (the first day with a score of 1 or greater), subcutaneous alzet pumps (DURECT Corporation, Cupertino, Calif.) were inserted and the animals were randomly assigned to receive either porcine relaxin (SKY BioHealth, Inc., Eden Prairie, Minn., 66.0 μg/day) or placebo treatment (1 μ/Hr PBS), either recombinant porcine relaxin (pRLN, n=8) or placebo (PBS, n=8) at a rate of 0.110/hr. […]
(§4) β-actin. Alternatively RT-PCR for the chemokine receptors (CCR); CCR2, CCR5, CCR7, the interleukins (IL-6 and IL-17) were analyzed using quantitect primers (table 2) and SYBR green based RT-PCR kits (Qiagen, Valencia, Calif.). For histology, spinal cords sections were stained using luxol fast blue-periodic acid shiff for semi-quantitative analysis of infiltration and demyelination.

CCR5 = assay: RT-PCR of spinal cord, CCR5 expression; type: in vivo, mice
Procedure: as §1, §3, §4

CCR7 = assay: RT-PCR of spinal cord, CCR7 expression; type: in vivo, mice
Procedure: as §1, §3, §4

IL-6 = assay: RT-PCR of spinal cord, IL-6 expression; type: in vivo, mice; details: for change of spinal cord IL-6 expression vs placebo: EAE mice, in words
Procedure: as §1, §2
(§5) Spinal cords and brains were collected for RT-PCR and histopathology. Total RNA was isolated from spinal cord and brain tissue using the RNeasy mini-kit protocol (Qiagen; Valencia, Calif.) and converted to cDNA using oligo(dT), random hexamers, and Superscript RT II (Invitrogen; Grand Island, N.Y.). […]
as §4

IL-10 = assay: RT-PCR of spinal cord, IL-10 expression; type: in vivo; details: EAE mice, in words (FIG. 3)
Procedure: as §1, §2
(§6) Spinal cords and brains were collected for RT-PCR and histopathology. […]

IL-17 = assay: RT-PCR of spinal cord, IL-17 expression; type: in vivo, mice; details: for change of spinal cord IL-17 expression vs placebo: EAE mice, in words
Procedure: as §1, §2, §5, §4

MIR2 = assay: Spinal cord expression of MIR2; type: in vivo; details: EAE mice, in words (FIG. 3)
Procedure: as §1, §2, §6

myelin = assay: Kiernan's eriochrome cyanin stain of spinal cord for myelin; type: in vivo; details: EAE mice, vs untreated (loss of myelin)
Procedure: (§7) For alternative histology, spinal cords were formalin fixed and paraffin embedded (FFPE) as described by Canene-Adams [Canene-Adams, 2013]. Briefly, Spinal cords were rinsed in PBS to remove blood and fixed in 10% formalin for 48 hours at room temperature. Tissues were then transferred to 70% ethanol (ETOH) for 1 hour, 95% ETOH (95% ETOH/5% methanol) for 1 hour, then incubated in four absolute ETOH baths first for 1 hour, then 2 for 1½ hours, followed by a fourth for 2 hours. Tissues were then cleared with two xylene baths for 1 hour each. Tissues were then incubated in two paraffin baths at 58° C. for 1 hour each. Tissues were then removed and placed in cassettes.
(§8) The FFPE tissues were sectioned into […] slices on a microtome. Slices were transferred to glass slides and warmed to 65° C. for 20 minutes to bond the tissue to the glass.
(§9) Sections were stained with Kiernan's eriochrome cyanin for myelin [Kiernan J A, 1999], cluster of differentiation 68 (CD68) for macrophages [Holness and Simmons, 1993], neurofilaments [Alberts, B. 2002] and glial fibrillary acidic protein (GFAP) [Jacque C M, et al, 1978].
Kiernan's stain for myelin was done as described. First tissues were placed in a solution containing eriochrome cyanine R, ferric chloride and sulphuric acid in water for 20 minutes. Rinsed briefly under tap water and differentiated with aqueous ferric chloride (5.6%). […]

[1] = test system: inflammation and Wallerian degeneration of the spinal cord; assay: H&E staining of spinal cord; type: in vivo; details: EAE mice, vs untreated
Procedure: as §7, §8
Staining with Hematoxylin and eosin (H&E) stain was also carried out according to standard protocols.

CD68 = CD68 immunohistochemistry of spinal cord (macrophages); type: in vivo; details: EAE mice, vs untreated; listed as RLN
Procedure: as §7, §8, §9
(§10) Standard immunohistochemistry [Ramos-vara and Miller, 2014] was used to identify the presence of CD68, neurofilaments and GFAP in the FFPE tissues. Essentially the appropriate antibody directed against the antigen of choice was incubated with the tissue and allowed to bind. […]

neurofilaments = assay: Neurofilament immunohistochemistry of spinal cord; type: in vivo; details: EAE mice, vs untreated; listed as RLN
Procedure: as §7, §8, §9, §10

GFAP = GFAP immunohistochemistry of spinal cord (gliosis); type: in vivo; details: EAE mice, untreated stained positive (extensive gliosis)
Procedure: as §7, §8, §9, §10

spinal cord lesions = assay: Spinal cord histology, infiltration and demyelination (lesion load); type: in vivo; details: EAE mice, compared to control animals, data not shown
Procedure: as §4

[2] = limited clinical trials (Smith 2006); cited from earlier work

relaxin: porcine relaxin (SKY BioHealth, Inc.), recombinant porcine relaxin (pRLN), infused by subcutaneous alzet pump (Relaxin B chain QSTNDFIKACGRELVRLWVEICGSVSWGRTAL; Relaxin A chain RMTLSEKCCQVGCIRKDIARLC; ends and bridges not checked; cysteine pairing not given here; UniProt P01348 25-56; P01348 161-182, looked up)
time to marked improvement in clinical score (EAE mouse model; EAE mice, after commencing continuous infusion (FIG. 1a)): ≤ 3 days | clinical score at the end of treatment (EAE mouse model; EAE mice, n=8, scale 0-5, subcutaneous alzet pump from EAE onset, score 2.0 at start, placebo 1.5, listed as RLN): 0.5 and > 0.5 | change in clinical score compared to PBS control (EAE mouse model; EAE model animals, FIG. 1a): improvement in clinical score | change of spinal cord CCR2 expression vs PBS/placebo (CCR2; EAE mice, in words): decreased; also recorded: significant reductions | spinal cord expression of CCR2 (CCR2; normalized to β-actin, EAE mice n=8, further studies (FIG. 2b), p<0.05 vs placebo): 0.044 relative units | change of spinal cord CCR5 expression vs PBS/placebo (CCR5; EAE mice, in words): decreased; also recorded: significant reductions | spinal cord expression of CCR5 (CCR5; normalized to β-actin, EAE mice n=8, further studies (FIG. 2b), not significant vs placebo 0.0046): 0.0035 relative units | change of spinal cord CCR7 expression vs PBS/placebo (CCR7; EAE mice, in words): decreased; also recorded: significant reductions | spinal cord expression of CCR7 (CCR7; normalized to β-actin, EAE mice n=8, further studies (FIG. 2b), p<0.05 vs placebo 0.014): 0.003 relative units | change of spinal cord IL-6 expression vs placebo (IL-6): significantly decreased | change of spinal cord IL-6 expression vs placebo (IL-6; listed as RLX): decreased | spinal cord expression of IL-6 (IL-6; normalized to β-actin, EAE mice n=8, further studies (FIG. 4), p<0.05 vs placebo 0.0009): 0.0004 relative units | change of spinal cord IL-10 expression (IL-10): decreased | change of spinal cord IL-17 expression vs placebo (IL-17): significantly decreased | change of spinal cord IL-17 expression vs placebo (IL-17; listed as RLX): decreased | spinal cord expression of IL-17 (IL-17; normalized to β-actin, EAE mice n=8, further studies (FIG. 4), p<0.05 vs placebo 0.00026): 0.000078 relative units | change of spinal cord MIR2 expression (MIR2): increased | change of spinal cord MIR2 expression (MIR2; listed as RLX): increased the expression of the MIR2 | myelin in spinal cord sections (myelin): decreases myelination and increases remyelination | myelin in spinal cord sections (myelin; listed as RLN): normal appearing myelin | inflammation and Wallerian degeneration of the spinal cord [1]: decrease in inflammation and Wallerian degeneration | macrophage infiltration of the spinal cord (CD68) (CD68): greater infiltration of macrophages in the untreated samples than in those treated with RLN; also recorded: decreased macrophage infiltration | loss of neurofilament in the spinal cord (neurofilaments): relatively greater loss of neurofilaments compared to mice receiving RLN therapy; also recorded: greater loss of neurofilament in the spinal cords of untreated mice | GFAP staining of spinal cord / gliosis (GFAP): complete lack of gliosis | GFAP staining of spinal cord / gliosis (GFAP; listed as RLN): negative for GFAP; also recorded: did not stain positively for GFAP | lesion load and size in the spinal cord (spinal cord lesions): reduced lesion load and size | severe side effects [2]: no severe side effects
